According to patent publication US7879344B2, “Transdermal delivery of oleocanthal for relief of inflammation” (Kimberly-Clark Worldwide, Inc., priority 2006, dated 2011):

Experiments:
[1] = phenolic group of oleocanthal; carboxylic acid group of ibuprofen and similar NSAIDs; cited from earlier work
[2] = solubility in fats and oils (stated in the text, no test described); assay type: physicochemical; conditions: "it has been discovered", no data given
Description: Traditionally, it has been difficult to administer ibuprofen and other similar NSAIDs transdermally. […] This is particularly problematic for transdermal administration, given the high concentration of lipids in the stratum corneum. Consequently, formulating a transdermal ibuprofen-containing composition that is capable of penetrating through the stratum corneum in effective amounts is difficult.
Without wishing to be bound to any particular theory, it is believed that the ability of oleocanthal to remain in a neutral state over a broad pH range contributes to the ability of oleocanthal to more readily penetrate the stratum corneum, as compared to ibuprofen and similar NSAIDs. […] This is advantageous for transdermal delivery. Since most transdermal compositions are formulated to have a pH of from about 3.5 to about 8.5, and more typically from about 5.0 to about 6.0, oleocanthal will mostly be in its neutral, non-ionized state when the transdermal composition is contacted with skin. In contrast, ibuprofen and similar NSAIDs, which contain a carboxylic acid group that may begin to ionize at a pH of about 4.0, will be all or partly in their ionized state (and thus […]) when the transdermal composition is contacted with skin. Consequently, oleocanthal penetrates the stratum corneum more readily than ibuprofen and other similar NSAIDs.

| solubility in fats and oils [2] | SMILES | pH at which the ionisable group begins to ionize [1] |
| --- | --- | --- |
| – | CC(C)Cc1ccc(C(C)C(=O)O)cc1 (stereo not drawn) [ibuprofen, reference compound] | about 4.0 pH |
| highly soluble | C/C=C(/C=O)[C@@H](CC=O)CC(=O)OCCc1ccc(O)cc1 [oleocanthal] | about 9.5 pH |
